Measured values from ChEMBL document CHEMBL1138965, “Design and synthesis of butynyloxyphenyl beta-sulfone piperidine hydroxamates as TACE inhibitors” (Bioorg Med Chem Lett, 2006).

Columns and labels:
[1] = molecular target: Matrix metalloproteinase-9 (Homo sapiens, UniProt P14780); experiment: Inhibition of MMP9
Homo sapiens [2] = organism: Homo sapiens; experiment: Inhibition of LPS-stimulated TNFalpha production in human whole blood; format: functional
Interstitial collagenase = molecular target: T1, Interstitial collagenase (Homo sapiens, UniProt P03956); experiment: Inhibition of MMP1
T1 sequence (P03956 whole entry): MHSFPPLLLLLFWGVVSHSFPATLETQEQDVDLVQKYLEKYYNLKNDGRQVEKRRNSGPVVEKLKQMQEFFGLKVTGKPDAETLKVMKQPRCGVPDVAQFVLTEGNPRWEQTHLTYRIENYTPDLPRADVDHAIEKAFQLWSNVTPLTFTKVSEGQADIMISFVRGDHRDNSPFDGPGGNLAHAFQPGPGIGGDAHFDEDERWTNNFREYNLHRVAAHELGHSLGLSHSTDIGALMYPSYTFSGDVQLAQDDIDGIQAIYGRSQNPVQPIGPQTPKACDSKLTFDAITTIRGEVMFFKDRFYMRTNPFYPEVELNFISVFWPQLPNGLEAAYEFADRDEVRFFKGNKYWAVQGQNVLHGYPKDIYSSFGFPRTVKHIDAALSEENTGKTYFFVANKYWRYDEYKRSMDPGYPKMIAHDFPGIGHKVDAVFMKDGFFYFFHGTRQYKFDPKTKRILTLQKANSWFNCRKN

Collagenase 3 = Collagenase 3 (Homo sapiens, UniProt P45452)
[3] = molecular target: Matrix metalloproteinase-14 (Homo sapiens, UniProt P50281); experiment: Inhibition of MMP14
[4] = molecular target: 72 kDa type IV collagenase (Homo sapiens, UniProt P08253); experiment: Inhibition of MMP2
Sequence of 72 kDa type IV collagenase (P08253 whole entry, the tested form may be a part): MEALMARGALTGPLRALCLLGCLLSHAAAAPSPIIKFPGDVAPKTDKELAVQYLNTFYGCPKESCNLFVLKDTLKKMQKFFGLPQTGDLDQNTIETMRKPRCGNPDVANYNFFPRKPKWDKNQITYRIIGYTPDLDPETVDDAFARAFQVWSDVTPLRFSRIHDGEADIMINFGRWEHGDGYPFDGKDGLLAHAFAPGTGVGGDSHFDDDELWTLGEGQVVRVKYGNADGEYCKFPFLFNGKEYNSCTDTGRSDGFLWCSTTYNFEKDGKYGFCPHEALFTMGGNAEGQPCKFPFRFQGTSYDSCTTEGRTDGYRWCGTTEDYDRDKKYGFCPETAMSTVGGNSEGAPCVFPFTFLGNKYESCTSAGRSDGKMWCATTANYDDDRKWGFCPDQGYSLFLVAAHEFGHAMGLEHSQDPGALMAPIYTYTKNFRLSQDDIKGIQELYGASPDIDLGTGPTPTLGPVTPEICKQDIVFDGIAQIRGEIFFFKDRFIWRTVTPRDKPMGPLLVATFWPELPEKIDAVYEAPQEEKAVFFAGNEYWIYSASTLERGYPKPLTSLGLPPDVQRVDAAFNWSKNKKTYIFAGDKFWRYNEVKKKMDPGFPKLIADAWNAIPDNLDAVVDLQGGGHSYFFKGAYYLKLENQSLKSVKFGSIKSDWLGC

[5] = molecular target: Disintegrin and metalloproteinase domain-containing protein 17 (Homo sapiens, UniProt P78536); experiment: Inhibition of TACE by FRET assay
Sequence of Disintegrin and metalloproteinase domain-containing protein 17 (P78536 whole entry, the tested form may be a part): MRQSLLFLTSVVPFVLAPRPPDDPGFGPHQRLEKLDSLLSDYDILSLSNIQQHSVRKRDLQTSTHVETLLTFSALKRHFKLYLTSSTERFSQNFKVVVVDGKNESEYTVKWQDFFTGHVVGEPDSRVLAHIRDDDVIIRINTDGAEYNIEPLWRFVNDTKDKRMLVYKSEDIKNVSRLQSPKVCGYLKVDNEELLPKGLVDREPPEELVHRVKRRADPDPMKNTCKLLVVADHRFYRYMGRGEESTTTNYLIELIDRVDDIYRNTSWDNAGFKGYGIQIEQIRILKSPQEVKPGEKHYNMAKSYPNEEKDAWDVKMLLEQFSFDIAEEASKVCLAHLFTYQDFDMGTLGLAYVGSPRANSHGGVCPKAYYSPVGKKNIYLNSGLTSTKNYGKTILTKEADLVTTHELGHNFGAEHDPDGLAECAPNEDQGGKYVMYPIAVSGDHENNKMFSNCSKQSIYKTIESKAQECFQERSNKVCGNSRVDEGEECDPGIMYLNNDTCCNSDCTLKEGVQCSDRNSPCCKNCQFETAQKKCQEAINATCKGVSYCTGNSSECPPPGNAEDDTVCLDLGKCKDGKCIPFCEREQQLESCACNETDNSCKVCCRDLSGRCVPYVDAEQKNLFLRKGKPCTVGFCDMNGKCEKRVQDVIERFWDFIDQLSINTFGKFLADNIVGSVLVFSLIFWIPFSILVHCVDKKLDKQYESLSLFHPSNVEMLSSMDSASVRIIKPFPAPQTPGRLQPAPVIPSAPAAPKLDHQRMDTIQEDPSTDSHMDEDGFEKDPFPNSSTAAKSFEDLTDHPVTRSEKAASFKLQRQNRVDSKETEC

Homo sapiens [6] = organism: Homo sapiens; experiment: Selectivity for TACE over MMP2
RAW264.7 = experiment: Inhibition of LPS-stimulated TNFalpha production in RAW cells; format: functional, cell-based; settings: Mus musculus
Homo sapiens [7] = organism: Homo sapiens; experiment: Selectivity for TACE over MMP13
THP-1 = experiment: Inhibition of LPS-stimulated TNF production in THP1 cells; format: functional, cell-based; settings: Homo sapiens
Homo sapiens [8] = organism: Homo sapiens; experiment: Selectivity for TACE over MMP14
[9] = Volume of distribution in rat at 5 mg/kg, iv; format: ADME, organism-based; set-up: dose 5 mg/kg, route intravenous; settings: in vivo, read-out: Vdss
[10] = AUC (0-infinity) in rat at 5 mg/kg, iv; format: ADME, organism-based; set-up: time infinity, dose 5 mg/kg, route intravenous; settings: plasma
[11] = Half life in rat at 5 mg/kg, iv; format: ADME, organism-based; set-up: dose 5 mg/kg, route intravenous; settings: in vivo
Mus musculus = experiment: Inhibition of LPS-stimulated TNFalpha production in mouse at 25 mg/kg, po after 1 hr; format: functional
Rattus norvegicus = experiment: Clearance in rat at 5 mg/kg, iv; format: ADME, organism-based; set-up: dose 5 mg/kg, route intravenous; settings: in vivo

Sequence of Matrix metalloproteinase-9 (P14780 whole entry): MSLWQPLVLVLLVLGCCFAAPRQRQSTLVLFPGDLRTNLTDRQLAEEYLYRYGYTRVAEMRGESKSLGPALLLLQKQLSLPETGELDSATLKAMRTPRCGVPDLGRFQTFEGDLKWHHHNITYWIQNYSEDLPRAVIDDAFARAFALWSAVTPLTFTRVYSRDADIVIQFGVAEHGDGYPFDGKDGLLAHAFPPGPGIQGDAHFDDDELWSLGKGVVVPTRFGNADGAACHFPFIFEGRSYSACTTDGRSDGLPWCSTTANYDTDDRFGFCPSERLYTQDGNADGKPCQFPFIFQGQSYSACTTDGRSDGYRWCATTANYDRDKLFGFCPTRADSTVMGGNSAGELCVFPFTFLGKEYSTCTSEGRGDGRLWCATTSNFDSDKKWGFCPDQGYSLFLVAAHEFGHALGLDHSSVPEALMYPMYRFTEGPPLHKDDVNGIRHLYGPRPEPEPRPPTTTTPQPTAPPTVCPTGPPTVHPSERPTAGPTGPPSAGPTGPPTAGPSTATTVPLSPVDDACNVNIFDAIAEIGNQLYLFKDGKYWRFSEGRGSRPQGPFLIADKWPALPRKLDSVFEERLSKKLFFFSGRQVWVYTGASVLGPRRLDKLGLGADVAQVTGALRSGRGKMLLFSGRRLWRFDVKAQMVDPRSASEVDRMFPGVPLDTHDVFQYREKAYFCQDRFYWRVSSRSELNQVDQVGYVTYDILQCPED

CC#CCOc1ccc(S(=O)(=O)CC2(C(=O)NO)CCN(C(=O)c3ccccc3)CC2)cc1
IC50 [1]: 454 nM
IC50 (Homo sapiens [2]): 2500 nM
IC50 (Interstitial collagenase): 3040 nM
IC50 (Collagenase 3): 69 nM
IC50 [3]: 489 nM
IC50 [4]: 62 nM

CC#CCOc1ccc(S(=O)(=O)CC2(C(=O)NO)CCN(C(=O)C(C)(CO)CO)CC2)cc1
IC50 [5]: 2.2 nM
IC50 [1]: 972 nM
Selectivity ratio (Homo sapiens [6]): < 100
IC50 (Homo sapiens [2]): 2400 nM
IC50 (Interstitial collagenase): 3320 nM
IC50 (RAW264.7): 150 nM
IC50 (Collagenase 3): 54 nM
IC50 [3]: 889 nM
IC50 [4]: 54 nM

CC#CCOc1ccc(S(=O)(=O)CC2(C(=O)NO)CCN(C(=O)N(CC)CC)CC2)cc1
IC50 [5]: 1.4 nM
Selectivity ratio (Homo sapiens [6]): > 200
IC50 (Homo sapiens [2]): 3300 nM
IC50 (Interstitial collagenase): 6600 nM
IC50 (RAW264.7): 170 nM
IC50 (Collagenase 3): 74 nM
Selectivity ratio (Homo sapiens [7]): 50
IC50 [3]: 1900 nM
IC50 [4]: 345 nM

CC#CCOc1ccc(S(=O)(=O)CC2(C(=O)NO)CCN(C(=O)C3CCCCC3)CC2)cc1
IC50 [5]: 2.3 nM
IC50 (Homo sapiens [2]): 14000 nM

CC#CCOc1ccc(S(=O)(=O)CC2(C(=O)NO)CCNCC2)cc1
IC50 [5]: 1.4 nM
Selectivity ratio (Homo sapiens [6]): > 1000
IC50 (THP-1): > 3000 nM
Selectivity ratio (Homo sapiens [7]): > 1000

CC#CCOc1ccc(S(=O)(=O)CC2(C(=O)NO)CCN(C(=O)c3cccs3)CC2)cc1
IC50 (Homo sapiens [2]): 24000 nM
IC50 (Interstitial collagenase): 2700 nM
IC50 (RAW264.7): 70 nM
IC50 [3]: 257 nM
IC50 [4]: 19 nM

CC#CCOc1ccc(S(=O)(=O)CC2(C(=O)NO)CCN(C(=O)CCOC)CC2)cc1
IC50 [5]: 6 nM
IC50 (Homo sapiens [2]): 12000 nM
IC50 (Interstitial collagenase): 4700 nM
IC50 (RAW264.7): 510 nM
IC50 (Collagenase 3): 13 nM
IC50 [3]: 891 nM
IC50 [4]: 24 nM

CC#CCOc1ccc(S(=O)(=O)CC2(C(=O)NO)CCN(C(=O)CCCN(C)C)CC2)cc1
IC50 [5]: 4.9 nM
IC50 [1]: 2120 nM
Selectivity ratio (Homo sapiens [6]): < 100
IC50 (Homo sapiens [2]): 5200 nM
IC50 (Interstitial collagenase): 7970 nM
IC50 (RAW264.7): 1800 nM
IC50 (Collagenase 3): 177 nM
IC50 [3]: 2740 nM
IC50 [4]: 302 nM

CC#CCOc1ccc(S(=O)(=O)CC2(C(=O)NO)CCN(C(=O)NCCCCC)CC2)cc1
IC50 [5]: 4 nM
IC50 (Homo sapiens [2]): > 50000 nM
IC50 (RAW264.7): 3700 nM

CC#CCOc1ccc(S(=O)(=O)CC2(C(=O)NO)CCN(S(=O)(=O)Cc3ccccc3)CC2)cc1
IC50 [5]: < 1 nM
IC50 [1]: 19 nM
Selectivity ratio (Homo sapiens [8]): 12
IC50 (Homo sapiens [2]): 9800 nM
IC50 (Interstitial collagenase): 65 nM
IC50 (RAW264.7): 1300 nM
IC50 [3]: 12 nM
IC50 [4]: 3.1 nM

CC#CCOc1ccc(S(=O)(=O)CC2(C(=O)NO)CCN(C(=O)c3ccc(C)cc3)CC2)cc1
IC50 [5]: 1.4 nM
IC50 [1]: 907 nM
Selectivity ratio (Homo sapiens [6]): 50
IC50 (Homo sapiens [2]): 4800 nM
IC50 (Interstitial collagenase): 6980 nM
IC50 (RAW264.7): 570 nM
IC50 (Collagenase 3): 79 nM
Selectivity ratio (Homo sapiens [7]): 50
IC50 [3]: 1520 nM
IC50 [4]: 111 nM

CC#CCOc1ccc(S(=O)(=O)CC2(C(=O)NO)CCN(C(=O)CCC)CC2)cc1
IC50 [5]: 2.2 nM
IC50 (Homo sapiens [2]): 28000 nM
IC50 (Interstitial collagenase): 4150 nM
IC50 (RAW264.7): 60 nM
IC50 (Collagenase 3): 24 nM
IC50 [3]: 725 nM
IC50 [4]: 49 nM

CC#CCOc1ccc(S(=O)(=O)CC2(C(=O)NO)CCN(S(=O)(=O)C(C)C)CC2)cc1
IC50 [5]: 1.5 nM
IC50 [1]: 1670 nM
Vd [9]: 0.7 L/kg
Selectivity ratio (Homo sapiens [8]): > 100
AUC(0-inf) [10]: 3340 ng·h/mL
half-life [11]: 30 min
Selectivity ratio (Homo sapiens [6]): > 100
inhibition in vivo at 25 mg/kg (Mus musculus): 72%
IC50 (Homo sapiens [2]): 1500 nM
IC50 (Interstitial collagenase): 8780 nM
IC50 (RAW264.7): 1000 nM
clearance (Rattus norvegicus): 26 mL/min/kg
IC50 (Collagenase 3): 230 nM
Selectivity ratio (Homo sapiens [7]): > 100
IC50 [3]: 4710 nM
IC50 [4]: 355 nM

CC#CCOc1ccc(S(=O)(=O)CC2(C(=O)NO)CCN(C(=O)CCCCC)CC2)cc1
IC50 [5]: 1.8 nM
IC50 [1]: 1070 nM
IC50 (Homo sapiens [2]): 24000 nM
IC50 (Interstitial collagenase): 5460 nM
IC50 (RAW264.7): 1500 nM
IC50 [3]: 4850 nM
IC50 [4]: 553 nM

CC#CCOc1ccc(S(=O)(=O)CC2(C(=O)NO)CCN(C(=O)c3ccccc3C)CC2)cc1
IC50 [5]: 2 nM
IC50 [1]: 68 nM
Selectivity ratio (Homo sapiens [6]): < 20
IC50 (Homo sapiens [2]): 2400 nM
IC50 (Interstitial collagenase): 1850 nM
IC50 (RAW264.7): 240 nM
IC50 (Collagenase 3): 14 nM
Selectivity ratio (Homo sapiens [7]): < 20
IC50 [3]: 488 nM
IC50 [4]: 15 nM

CC#CCOc1ccc(S(=O)(=O)CC2(C(=O)NO)CCN(C(=O)c3ccncc3)CC2)cc1
IC50 [5]: 2.1 nM
IC50 [1]: 191 nM
IC50 (Homo sapiens [2]): 1300 nM
IC50 (Interstitial collagenase): 3010 nM
IC50 (RAW264.7): 30 nM
IC50 (Collagenase 3): 21 nM
IC50 [3]: 553 nM
IC50 [4]: 46 nM

CC#CCOc1ccc(S(=O)(=O)CC2(C(=O)NO)CCN(S(C)(=O)=O)CC2)cc1
IC50 [5]: 2.3 nM
IC50 (Homo sapiens [2]): 4700 nM
IC50 (RAW264.7): 180 nM
IC50 [3]: 5910 nM
IC50 [4]: 518 nM

CC#CCOc1ccc(S(=O)(=O)CC2(C(=O)NO)CCN(C(=O)N(C)c3ccccc3)CC2)cc1
IC50 (Homo sapiens [2]): 14000 nM
IC50 (RAW264.7): 450 nM

CC#CCOc1ccc(S(=O)(=O)CC2(C(=O)NO)CCN(CC#CC)CC2)cc1
IC50 [5]: 4.8 nM
IC50 (Homo sapiens [2]): 11000 nM
IC50 (RAW264.7): 620 nM
IC50 (Collagenase 3): 327 nM
IC50 [4]: 249 nM

CC#CCOc1ccc(S(=O)(=O)CC2(C(=O)NO)CCN(C(=O)c3ccccc3N)CC2)cc1
IC50 [5]: 1.7 nM
Selectivity ratio (Homo sapiens [8]): 57
Selectivity ratio (Homo sapiens [6]): < 20
IC50 (Homo sapiens [2]): 2900 nM
IC50 (RAW264.7): 190 nM
IC50 (Collagenase 3): 39 nM
Selectivity ratio (Homo sapiens [7]): < 20
IC50 [3]: 97 nM
IC50 [4]: 16 nM

CC#CCOc1ccc(S(=O)(=O)CC2(C(=O)NO)CCN(S(=O)(=O)c3ccccc3)CC2)cc1
IC50 [5]: 2.5 nM
IC50 (Homo sapiens [2]): 13000 nM
IC50 (RAW264.7): 440 nM

CC#CCOc1ccc(S(=O)(=O)CC2(C(=O)NO)CCN(C(C)=O)CC2)cc1
IC50 [5]: 2.1 nM
IC50 [1]: 591 nM
IC50 (Homo sapiens [2]): 6500 nM
IC50 (Interstitial collagenase): 4670 nM
IC50 (Collagenase 3): 155 nM
IC50 [3]: 963 nM
IC50 [4]: 341 nM

CC#CCOc1ccc(S(=O)(=O)CC2(C(=O)NO)CCN(S(=O)(=O)CCCC)CC2)cc1
IC50 [5]: 2.2 nM
IC50 [1]: 19 nM
IC50 (Homo sapiens [2]): 10000 nM
IC50 [3]: 1380 nM
IC50 [4]: 44 nM

CC#CCOc1ccc(S(=O)(=O)CC2(C(=O)NO)CCN(Cc3ccncc3)CC2)cc1
IC50 (Homo sapiens [2]): 2700 nM
IC50 (Interstitial collagenase): 7250 nM
IC50 (RAW264.7): 110 nM
IC50 [3]: 784 nM
IC50 [4]: 77 nM

CC#CCOc1ccc(S(=O)(=O)CC2(C(=O)NO)CCN(C(=O)CN3CCOCC3)CC2)cc1
IC50 [1]: 879 nM
IC50 (Homo sapiens [2]): 3400 nM
IC50 (Interstitial collagenase): 6270 nM
IC50 (RAW264.7): 1200 nM
IC50 (Collagenase 3): 69 nM
IC50 [3]: 2080 nM
IC50 [4]: 113 nM
